The values below come from patent US11352365B2, “Biased potent opioid-like agonists as improved medications to treat chronic and acute pain and methods of using the same” (THE UNITED STATES OF AMERICA, AS REPRESENTED BY THE …, priority 2018, dated 2022).

Assay [1] has as its target T1, MOR (Homo sapiens, UniProt P35372). The experiment in a line: cell-based. The assay is classed as cell-based. Details: expressed in transfected cells; host or cells: CHO-hMOR (membrane variant); SH-SY5Y-hMOR also named. The procedure:
Four thousand cells per well were split into 384-well low-volume plate (VWR) with Opti-MEM (Invitrogen) supplemented with 1% FBS for 3 hours at 37° C. except SH-SY5Y-hMOR cells, which were plated for 1 hour at 37° C. Cells were then treated with drugs, […] forskolin for 30 min at room temperature.
Cells were then homogenized by a Dounce homogenizer 15 times in an ice-cold buffer [50 mM Hepes (pH 7.4)], followed by centrifugation at 500 g at 4° C. for 5 min. The supernatant was transferred to a 1.5-ml tube on ice, and the pellet was resuspended, homogenized, and centrifuged at 500 g at 4° C. for 5 min. Then, the supernatant was combined and spun at 20,000 g at 4° C. for 10 min. The membrane pellet was resuspended in an ice-cold buffer [50 mM Hepes (pH 7.4)] at concentrations of […]. Membranes were stored at −80° C. until use. For forskolin-stimulated cAMP accumulation assay, membranes were diluted in an assay buffer (50 mM Hepes, 10 mM MgCl2, 100 mM NaCl, 200 mM adenosine 5′-triphosphate, 10 mM GTP, 100 mM 3-isobutyl-1-methylxanthine, 20 mM forskolin, and 30 mM bovine serum albumin) and plated at […] of protein in each well. Membranes were treated with test compounds for 30 min at room temperature. The cAMP levels were determined as per the manufacturer's instructions (Cisbio cAMP HiRange assay).

Assay [2] addresses T1, MOR. Briefly: cell-based. The assay is classed as cell-based. Also noted: host or cells: U2OS-β-arrestin2-EFC-hMOR. As to conditions: for EC50: read-out: MOR Mediated β-arrestin Recruitment. The procedure: The PathHunter β-arrestin assay. The assay was performed according to the manufacturer's protocol (DiscoveRx) and as described previously. Briefly, 5000 U2OS-β-arrestin2-EFC-hMOR cells were plated in 384-well white plates with Opti-MEM media (Invitrogen) containing 1% FBS±pertussis toxin (100 ng/ml) overnight. The next day, cells were treated with compounds for 90 min at 37° C., followed by a 1-hour incubation of detection reagent at room temperature. Luminescence values were determined by using a Synergy HT luminometer (BioTek).

In assay [3] the target is T2, κ opioid receptor (Rattus norvegicus, UniProt P34975).
T2 construct: from tissue; host or cells: rat tissue (per the earlier reading)
T2 sequence (P34975 whole entry): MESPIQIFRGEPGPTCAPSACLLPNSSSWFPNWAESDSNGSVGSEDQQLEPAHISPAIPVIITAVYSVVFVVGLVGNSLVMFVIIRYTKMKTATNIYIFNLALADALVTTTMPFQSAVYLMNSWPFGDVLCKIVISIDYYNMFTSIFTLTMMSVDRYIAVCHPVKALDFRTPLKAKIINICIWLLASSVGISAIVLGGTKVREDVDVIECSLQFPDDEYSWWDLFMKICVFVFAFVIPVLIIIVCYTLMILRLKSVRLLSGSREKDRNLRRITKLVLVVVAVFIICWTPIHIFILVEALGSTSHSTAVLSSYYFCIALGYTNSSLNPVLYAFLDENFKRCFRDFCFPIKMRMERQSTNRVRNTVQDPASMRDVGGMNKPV
Briefly: Binding assay, 3H U69,593, rat tissue.

The target in assay [4] is T3, δ opioid receptor (Rattus norvegicus, UniProt P33533).
T3 construct: from tissue; host or cells: rat tissue (per the earlier reading)
T3 sequence (P33533 whole entry): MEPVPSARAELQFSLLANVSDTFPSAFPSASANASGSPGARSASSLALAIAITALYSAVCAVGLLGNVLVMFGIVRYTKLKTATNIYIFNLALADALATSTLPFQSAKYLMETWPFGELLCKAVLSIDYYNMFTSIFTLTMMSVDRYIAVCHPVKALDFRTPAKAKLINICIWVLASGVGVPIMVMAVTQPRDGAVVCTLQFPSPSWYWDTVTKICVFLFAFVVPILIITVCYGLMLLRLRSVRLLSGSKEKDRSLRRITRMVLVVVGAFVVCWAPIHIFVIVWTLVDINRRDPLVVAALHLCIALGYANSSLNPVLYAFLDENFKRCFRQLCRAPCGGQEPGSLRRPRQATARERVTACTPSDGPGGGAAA
The experiment in a line: Binding assay, 3H DADLE, rat tissue.

Assay [5] concerns the target T4, μ opioid receptor (Rattus norvegicus, UniProt P33535). As to conditions: read-out: 3H DAMGO μ Ki ± SEM; rat tissue, triplicate.
Assay [6] deals with T5, KOR (Homo sapiens, UniProt P41145). Briefly: KOR cAMP antagonist assay. The assay is classed as cell-based.
T5 sequence (P41145 whole entry): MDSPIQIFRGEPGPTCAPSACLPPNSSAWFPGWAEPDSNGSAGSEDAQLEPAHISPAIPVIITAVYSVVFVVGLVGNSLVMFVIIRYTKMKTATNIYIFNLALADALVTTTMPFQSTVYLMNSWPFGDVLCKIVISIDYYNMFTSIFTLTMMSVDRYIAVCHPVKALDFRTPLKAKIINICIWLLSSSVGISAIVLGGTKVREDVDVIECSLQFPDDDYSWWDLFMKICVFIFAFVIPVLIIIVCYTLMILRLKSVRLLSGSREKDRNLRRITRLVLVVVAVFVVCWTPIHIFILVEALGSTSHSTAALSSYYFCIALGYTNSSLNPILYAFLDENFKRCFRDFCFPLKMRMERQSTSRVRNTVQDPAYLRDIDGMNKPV
Assay [7] addresses T5, KOR. Briefly: KOR cAMP agonist assay. The assay is classed as cell-based. As to conditions: Table 1; read-out: KOR cAMP Agonist Potency ± SEM.
Assay [8] has as its target T4, μ opioid receptor. Briefly: biochemical.

Where two headings read alike, the source gives them in different places.

T1 sequence (P35372 whole entry): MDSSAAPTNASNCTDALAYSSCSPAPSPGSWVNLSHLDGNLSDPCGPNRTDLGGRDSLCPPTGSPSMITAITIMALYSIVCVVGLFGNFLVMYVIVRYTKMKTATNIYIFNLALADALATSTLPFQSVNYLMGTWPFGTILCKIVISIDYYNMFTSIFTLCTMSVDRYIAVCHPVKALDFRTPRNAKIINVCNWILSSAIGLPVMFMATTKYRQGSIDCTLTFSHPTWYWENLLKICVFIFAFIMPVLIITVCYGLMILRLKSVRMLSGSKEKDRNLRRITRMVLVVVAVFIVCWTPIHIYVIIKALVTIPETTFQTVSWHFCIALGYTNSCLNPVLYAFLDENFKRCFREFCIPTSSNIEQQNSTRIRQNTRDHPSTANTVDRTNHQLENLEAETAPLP
T4 sequence (P33535 whole entry): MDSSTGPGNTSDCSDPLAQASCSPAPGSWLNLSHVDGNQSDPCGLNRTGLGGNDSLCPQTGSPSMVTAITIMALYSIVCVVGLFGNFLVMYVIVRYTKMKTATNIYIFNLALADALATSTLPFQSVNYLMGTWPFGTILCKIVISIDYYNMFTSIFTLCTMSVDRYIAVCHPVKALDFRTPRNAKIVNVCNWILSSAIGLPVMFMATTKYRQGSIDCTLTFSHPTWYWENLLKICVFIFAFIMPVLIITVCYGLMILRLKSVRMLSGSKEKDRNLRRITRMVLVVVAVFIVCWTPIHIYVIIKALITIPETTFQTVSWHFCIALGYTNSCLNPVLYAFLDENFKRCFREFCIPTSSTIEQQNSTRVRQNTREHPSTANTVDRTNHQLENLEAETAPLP

Consider “3-((1S,5R,9R)-9-(2-hydroxyethyl)-2-phenethyl-2-azabicyclo[3.3.1]nonan-5-yl)phenol [Compound 9]”, for which the “MOR cAMP Agonist (% Efficacy)” value in assay [1] (Table 1) was “(64 ± 2%)”. The EC50 in assay [1] (Table 1, read-out: MOR cAMP Agonist Potency ± SEM) is 4.7 ± 0.5 nM; in assay [2] (Table 1), above 25000 nM. Further, the “agonist character at the mu-receptor (in words)” value in assay [1] (in vitro data) is recorded as “less potent partial agonist”. Moreover, the “beta-arrestin recruitment (in words)” value in assay [2] is recorded as “do not”. In addition, the “3H U69,593 κ activity in exploratory assay” value in assay [3] (100 nM concentration, rat tissue) is recorded as “I (<50% activity at 100 nM concentration (displaced less than half of radioligand) in exploratory assay)”. Besides, the “interaction with the kappa-receptor (in words)” value in assay [3] (in vitro data) is given as “does not interact with the kappa-receptor”. Besides, in assay [4] (100 nM concentration), the “3H DADLE δ activity in exploratory assay” value was “I (<50% activity at 100 nM concentration (displaced less than half of radioligand) in exploratory assay)”. For the same molecule, the Ki in assay [5] was 5.43 ± 0.09 nM.
In the case of `COC(=O)CC[C@H]1[C@@H]2CCC[C@@]1(c1cccc(O)c1)CCN2CCc1ccccc1` [Compound 8, Methyl 3-((1S,5R,9R)-5-(3-hydroxyphenyl)-2-phenethyl-2-azabicyclo[3.3.1]nonan-9-yl)propanoate], the “beta-arrestin recruitment (in words)” value in assay [2] is reported as “do not”. Further, the values for the EC50 in assay [2] (Table 1) and in assay [7] were above 25000 nM and above 10000 nM, respectively. In assay [2] (read-out: MOR Mediated β-arrestin Recruitment (% Control, Emax DAMGO), Table 1), the Emax came out at 0%. In addition, in assay [6] (Table 1), the “KOR cAMP Antagonist Potency ± SEM” value is listed as 2.0 ± 0.4 nM. Moreover, the “activity at the kappa-receptor (in words)” value in assay [6] (in vitro data) is given as “kappa-receptor antagonist”. The Ki was found to be 23.2 ± 3.11 nM in assay [3] (rat tissue, triplicate, read-out: 3H U69,593 κ Ki ± SEM); 0.9 ± 0.04 nM in assay [8]; 118 ± 7.41 nM in assay [4] (triplicate, read-out: 3H DADLE δ Ki ± SEM).

By Ki is commonly meant the equilibrium dissociation constant of an inhibitor or competing ligand from its target. In general, Emax refers to the maximal effect, on the per cent scale that the assay sets.
